What was measured:
[1] = cited from earlier work
[2] = tested on: Pre-OLs from Nkx2.1-GFP+ sorted cultures at stage VI; assay: Cell cycle analysis with BrdU (flow cytometry); format: cell-based, human
Experimental: BrdU cell cycle analysis was performed according to the manufacturer's protocol (BD Biosciences). For a detailed protocol, see Supplemental Experimental Procedures.
Pre-OLs from Nkx2.1-GFP+ sorted cultures at stage VI day 7 and day 21 were pulsed with BrdU for 1 hour. Cells were then treated with DNAse I for 45 minutes then collected using accutase (Life Technologies). Collected cells were fixed and permeabilized and stained with anti-BrdU conjugated with APC for 30 minutes at 4° C. Cells were washed and stained with 7-AAD. Cells were then analyzed on LSR-Fortessa (BD Biosciences). Unpulsed cells and pulsed cells without anti-BrdU staining served as a negative control.

slc16a2-/- zebrafish = conditions: cited from earlier work
[3] = tested on: H9-derived hOPCs (Merck/Millipore); assay: Microarray analysis of H9-derived hOPC mixed neural cultures treated with DITPA; format: cell-based, human; conditions: 48 hours
Experimental: H9-derived hOPCs (Merck/Millipore) were differentiated for 4 weeks and the following treatments were administered to the cells for 48 hours: Medium with 0.01% absolute ethanol control; 1 ng/mL DITPA (DITPA 1 ng/mL); 10 ng/mL DITPA (DITPA 10 ng/mL); or 100 ng/mL DITPA (DITPA 100 ng/mL). 1 μg of collected mRNA from each population was hybridized to Human HT-12 v3.0 Gene Expression BeadChip (Illumina) according to the manufacturer's instruction (For detailed procedure see Supplemental Experimental Procedures).
H9-derived commercially available human neural precursors were cultured and differentiated according to the manufacturer's protocol (Human OPC differentiation kit, Millipore). Briefly, undifferentiated cells were maintained on 4% growth factor-reduced Matrigel (BD Biosciences) for a week in manufacturer provided expansion medium then differentiated on poly-L-ornithine (10 μg/mL, Sigma-Aldrich) and mouse laminin (10 μg/mL, Life Technologies) coated plates for 4 weeks in manufacturer provided medium.
Raw signal intensity values were subjected to variance stabilization transformation including background correction, log2 transformation and variance stabilization using the lumiR package of R Bioconductor (Du et al., 2008). Since there were fewer arrays of common genes detected in DITPA 100 ng/mL compared to DITPA 1 ng/mL and 10 ng/mL versus ethanol control, all analyses were performed without DITPA 100 ng/mL. Hierarchical clustering with centroid linkage clustering was performed. ANOVA analyses of normalized probe intensity values were performed in Partek Genomic Suite (Partek). ANOVA was used to calculate the significance of variation in normalized expression values between sample-groups, and fold change of gene expression was calculated as mean ratio. Absolute fold changes of 1.5 or more were defined as differentially expressed. Gene ontology enrichment analysis was performed on the list of differentially expressed probes in Partek.

[4] = tested on: Nkx2.1-GFP+ sorted cells at stage VI; assay: qRT-PCR gene expression in Nkx2.1-GFP+ sorted cells at stage VI treated with T3, DITPA or T3+DITPA; format: cell-based, human
Experimental: RNA was isolated from cells by using RNeasy Mini Kit (Qiagen) according to the manufacturer's instruction and treated with DNase-I to remove genomic DNA. The concentrations of total RNA were measured by Nanodrop ND-1000 spectrophotometer v3.7 (Thermo Specific) and complementary DNA (cDNA) was synthesized from 1 μg of total RNA using High-Capacity cDNA Reverse Transcription Kit (Applied Biosystems) according to the manufacturer's instructions. Real-Time Quantitative Reverse Transcription Polymerase Chain Reaction (qRT-PCR) was performed with 5-20 ng of cDNA template, 2× Taqman Gene expression master mix and 20× Taqman probes (Life technologies) on ABI Prism 7900HT Sequence detection system (Applied Biosystems). Gapdh served as an endogenous standard control. The qRT-PCR thermo-cycling reaction was 1 cycle at 50° C. for 2 minutes, 1 cycle at 95° C. for 10 minutes and 40 cycles of 95° C. for 15 seconds, then 60° C. for 1 minute. The threshold cycle (CT) value, which represents the cycle at which the first PCR product is detected, was measured in triplicate and normalized against the endogenous control, GAPDH, to determine the ΔCT value. Then the ΔCT values of GFP-positive cells were then standardized against the ΔCT values of undifferentiated hESCs, derived as relative mRNA expression (ΔΔCT).
Bar graphs illustrating the qRT-PCR analyses in FIG. 2, 3, S1-3 representing the log2 of the average fold-change in gene expression compared directly to the undifferentiated Stage I hESC or T3-treated cells at day 7 in FIG. 5 and S5.

[5] = tested on: Pre-OLs from Nkx2.1-GFP+ sorted cultures at stage VI, day 21; assay: MTT-based cytotoxicity assay under Bosutinib MCT8 blockade; format: cell-based, human; conditions: Bosutinib with 10 ng/mL DITPA, 48 hours
Experimental: Pre-OLs from Nkx2.1-GFP+ sorted cultures at stage VI, day 21 were treated with the pharmacological inhibitor of MCT8, bosutinib (LC Laboratories, B-1788, reconstituted in dimethyl sulfoxide, [DMSO]) at different concentrations (1 ng/mL, 10 ng/mL and 100 ng/mL) with co-administration of 10 ng/mL DITPA. An MTT assay and flow cytometry were then performed on the cells stained for DAPI after 48 hours of treatment, to analyze DAPI+ dead cells.

[6] = 1 and 10 ng/mL, vs ethanol control
[7] = compared to T3 treated cultures
[8] = differentiating cultures treated with DITPA

**Q.** With `O=C(O)CCc1cc(I)c(Oc2ccc(O)cc2)c(I)c1` [DITPA, 3,5-Diiodothyropropionic acid] as the compound, how does the “solubility in water and aqueous solutions” value [1] read?
**A.** sparingly soluble

**Q.** What about the cell cycle exit ([2]; compared with T3) of the same compound?
**A.** potentiates cell cycle exit faster than T3

**Q.** What about the “numbers of cells in S phase” value ([2]; day 7, compared with T3 alone) of the same compound?
**A.** significant reduction

**Q.** What about the locomotor behavioral outcomes (slc16a2-/- zebrafish) of the same compound?
**A.** restored

**Q.** What about the myelin deficiencies (slc16a2-/- zebrafish) of the same compound?
**A.** restored

**Q.** What about the “ASCL1 expression (oligodendroglial enriched transcription factor)” value [3, 6] of the same compound?
**A.** up-regulation

**Q.** And the “CRYM (μ-crystallin) expression” value [3, 6]?
**A.** down-regulation

**Q.** And the DIO3OS expression [3, 6]?
**A.** up-regulation

**Q.** What about the DIO3 expression [3, 6] of the same compound?
**A.** up-regulation

**Q.** What about the “MYT1 expression (oligodendroglial enriched transcription factor)” value [3, 6] of the same compound?
**A.** up-regulation

**Q.** What about the RARA expression [3, 6] of the same compound?
**A.** up-regulation

**Q.** And the RARRES3 expression [3, 6]?
**A.** down-regulation

**Q.** What about the “astrocyte and neuron enriched transcription factors regulated” value [3, 6] of the same compound?
**A.** minimal

**Q.** And the thrb expression [3, 6]?
**A.** up-regulation

**Q.** What about the commonly regulated genes ([3]; DITPA at 1 ng/mL and 10 ng/mL vs ethanol control) of the same compound?
**A.** 3385

**Q.** What about the “up-regulation of metallothionein (MT1A)” value ([3]; upon DITPA treatment) of the same compound?
**A.** ~8 fold

**Q.** And the “up-regulation of p53” value ([3]; upon DITPA treatment)?
**A.** ~2 fold

**Q.** And the “up-regulation of reprimo (RPRM)” value ([3]; upon DITPA treatment)?
**A.** ~13 fold

**Q.** What about the “cdkn1b (p27) expression” value [4, 7] of the same compound?
**A.** up-regulated

**Q.** What about the “tp53 (p53) expression” value [4, 7] of the same compound?
**A.** up-regulated

**Q.** What about the OL differentiation ([4]; compared with T3) of the same compound?
**A.** promotes OL differentiation

**Q.** What about the dio2 expression ([4]; compared with T3 treatment) of the same compound?
**A.** no significant differences

**Q.** What about the dio3 expression ([4]; compared with T3 treatment) of the same compound?
**A.** no significant differences

**Q.** What about the thrb expression ([4]; compared with T3 treatment) of the same compound?
**A.** no significant differences

**Q.** And the “slc16a2 (MCT8) expression” value ([4]; day 7, compared with T3)?
**A.** significant up-regulation

**Q.** What about the “slc16a10 (MCT10) expression” value ([4]; day 7, compared with T3) of the same compound?
**A.** significant up-regulation

**Q.** And the plp1 expression ([4]; day 21 of treatment, versus T3 alone)?
**A.** substantial up-regulation

**Q.** What about the mbp expression [4, 8] of the same compound?
**A.** up-regulation

**Q.** And the myt1 expression [4, 8]?
**A.** up-regulation

**Q.** And the plp1 expression [4, 8]?
**A.** up-regulation

**Q.** What about the olig1 expression ([4]; following DITPA treatment) of the same compound?
**A.** up-regulated

**Q.** What about the olig2 expression ([4]; following DITPA treatment) of the same compound?
**A.** up-regulated

**Q.** What about the sox10 expression ([4]; following DITPA treatment) of the same compound?
**A.** up-regulated

**Q.** What about the “up-regulation of slc16a10” value ([4]; following DITPA treatment) of the same compound?
**A.** ~14 fold

**Q.** What about the bmp7 expression ([4]; upon DITPA treatment) of the same compound?
**A.** down-regulation

**Q.** And the “frzb expression (WNT antagonist)” value ([4]; upon DITPA treatment)?
**A.** up-regulation

**Q.** What about the jun expression ([4]; upon DITPA treatment) of the same compound?
**A.** down-regulation

**Q.** What about the “sfrp1 expression (WNT antagonist)” value ([4]; upon DITPA treatment) of the same compound?
**A.** up-regulation

**Q.** And the “sfrp2 expression (WNT antagonist)” value ([4]; upon DITPA treatment)?
**A.** up-regulation

**Q.** And the tgfb3 expression ([4]; upon DITPA treatment)?
**A.** down-regulation

**Q.** And the “tnfrsf2 (encodes DR6) expression” value ([4]; upon DITPA treatment)?
**A.** almost negligible up-regulation

**Q.** And the wnt5a expression ([4]; upon DITPA treatment)?
**A.** down-regulation

**Q.** What about the “survival rates (MTT assay)” value [5] of the same compound?
**A.** increased survival rates

From patent US10640748B2, “Oligodendroglial cell culturing methods and in methods for treating neurodegenerative disorders by using thyroid hormones or analogues” (NeuOrphan Pty Ltd, priority 2014, dated 2020)
